Results: patent publication US10098878B2, “HIF-2α inhibitors for treating iron overload disorders” (The Board of Regents of the University of Texas System, priority 2014, dated 2018)
Where two headings read alike, the source gives them in different places.

Target: T1, HIF-2α HIS TAG-PASB Domain (Homo sapiens, UniProt Q99814)
T1 construct: 100 nM HIF-2α HIS TAG-PASB Domain
Assay: HIF-2α Scintillation Proximity Assay (SPA)
Type: binding
Details: 100 nM HIF-2α HIS TAG-PASB Domain
Protocol: The total assay volume was about 100 μL in the following configuration: 2 μL compound in 100% DMSO, 88 μL buffer with protein and probe and 10 μL of SPA beads. […] The percent inhibition was determined and IC50 values were calculated using the Dotmatics system based on the following equation: % inhibition=[(high control−sample)/(high control−low control)]×100.

[1] = 150 nM Compound 211 probe, read-out: SPA IC50

T1 sequence (Q99814 240-350 limits assumed): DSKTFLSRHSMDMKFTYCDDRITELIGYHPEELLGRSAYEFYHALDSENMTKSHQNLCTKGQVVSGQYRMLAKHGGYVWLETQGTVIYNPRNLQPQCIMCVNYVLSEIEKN

Row | Compound | IC50 [1] [µM] | IC50 (SPA IC50, 150 nM Compound 211 probe) [µM]
1 | O=C1c2c(ccc(Oc3cc(F)cc(Cl)c3)c2Br)S(=O)(=O)C1(F)F [Compound 118, 4-Bromo-5-(3-chloro-5-fluorophenoxy)-2,2-difluorobenzo[b]thiophen-3(2H)-one 1,1-dioxide] | 1.4 | –
2 | N#CN=S(=O)(c1ccc(Oc2cc(F)cc(C#N)c2)c2c1[C@H](O)[C@H](F)C2)C(F)F (single isomer, unassigned) [Compound 61] | 12.4 | –
3 | C[C@]1(F)Cc2c(Oc3cc(F)cc(C#N)c3)ccc(S(C)(=O)=O)c2[C@@H]1O [Compound 62, 3-fluoro-5-(((1S,2S)-2-fluoro-1-hydroxy-2-methyl-7-(methylsulfonyl)-2,3-dihydro-1H-inden-4-yl)oxy)benzonitrile] | 16.1 | –
4 | O=S1(=O)CC(O)c2c1ccc(Oc1cc(F)cc(F)c1)c2Br (stereo not shown) [Compound 182, 4-Bromo-5-(3,5-difluorophenoxy)-3-hydroxy-2,3-dihydrobenzo[b]thiophene 1,1-dioxide] | 17.1 | –
5 | N#CN=S(=O)(CF)c1ccc(Oc2cc(F)cc(C#N)c2)c2c1[C@H](O)C(F)(F)C2 (single isomer, unassigned) [Compound 50] | 0.024 | –
6 | CC(C)(C)OC(=O)N[C@H]1C[C@@H](O)c2c(S(=O)(=O)C(F)(F)F)ccc(Oc3cc(F)cc(C#N)c3)c21 (relative stereo) [Compound 42, tert-butyl(cis-7-(3-cyano-5-fluorophenoxy)-3-hydroxy-4-((trifluoromethyl)sulfonyl)-2,3-dihydro-1H-inden-1-yl)carbamate] | 2.2 | –
7 | NC1c2c(ccc(Oc3cc(F)cc(F)c3)c2C(F)F)S(=O)(=O)C1F (stereo not shown) [Compound 130, 3-amino-4-(difluoromethyl)-5-(3,5-difluorophenoxy)-2-fluoro-2,3-dihydrobenzo[b]thiophene 1,1-dioxide] | 1.5 | –
8 | CS(=O)(=NC#N)c1ccc(Oc2cc(F)cc(C#N)c2)c2c1[C@@H](O)C(F)(F)[C@@H]2F (single isomer, unassigned) [Compound 86] | 9.9 | –
9 | CS(=O)(=O)c1ccc(Oc2cc(F)cc(C#N)c2)c2c1[C@H](O)CC2(F)F [Compound 52, 3-[(1R)-3,3-difluoro-1-hydroxy-7-methylsulfonyl-indan-4-yl]oxy-5-fluoro-benzonitrile] | 6.5 | –
10 | CS(=O)(=NC#N)c1ccc(Oc2cc(F)cc(C#N)c2)c2c1[C@H](O)C(F)(F)[C@H]2F (single isomer, unassigned) [Compound 82] | 2.4 | –
11 | CC1(C)C(O)c2c(ccc(Oc3cc(F)cc(Cl)c3)c2C#N)S1(=O)=O (stereo not shown) [Compound 172, 5-(3-Chloro-5-fluoro-phenoxy)-3-hydroxy-2,2-dimethyl-1,1-dioxo-3H-benzothiophene-4-carbonitrile] | 19.6 | –
12 | O=S1(=O)CCc2c1ccc(Oc1cc(F)cc(Cl)c1)c2Br [Compound 114, 4-Bromo-5-(3-chloro-5-fluorophenoxy)-2,3-dihydrobenzo[b]thiophene 1,1-dioxide] | 4.4 | –
13 | O=C1c2c(ccc(Oc3cc(F)cc(Cl)c3)c2Br)S(=O)(=O)C12CC2 [Compound 168, 4-Bromo-5-(3-chloro-5-fluoro-phenoxy)-1,1-dioxo-spiro[benzothiophene-2,1′-cyclopropane]-3-one] | 6.3 | –
14 | COCCNC1c2c(ccc(Oc3cc(F)cc(C#N)c3)c2C(F)F)S(=O)(=O)C1(F)F (stereo not shown) [Compound 146, 3-((4-(Difluoromethyl)-2,2-difluoro-3-((2-methoxyethyl)amino)-1,1-dioxido-2,3-dihydrobenzo[b]thiophen-5-yl)oxy)-5-fluorobenzonitrile] | 2.89 | –
15 | O=S1(=O)C[C@H](O)c2c1ccc(Oc1cc(F)cc(F)c1)c2Br [Compound 177, (R)-4-bromo-5-(3,5-difluorophenoxy)-3-hydroxy-2,3-dihydrobenzo[b]thiophene 1,1-dioxide] | 4.66 | –
16 | CS(=O)(=O)c1ccc(Oc2cncc(F)c2)c2c1[C@H](O)C(F)(F)[C@H]2F [Compound 94, (1S,3S)-2,2,3-trifluoro-4-((5-fluoropyridin-3-yl)oxy)-7-(methylsulfonyl)-2,3-dihydro-1H-inden-1-ol] | 2.1 | –
17 | N#Cc1cc(F)cc(Oc2ccc3c(c2C(F)F)[C@H](N)C(F)(F)S3(=O)=O)c1 [Compound 148, (S)-3-((3-Amino-4-(difluoromethyl)-2,2-difluoro-1,1-dioxido-2,3-dihydrobenzo[b]thiophen-5-yl)oxy)-5-fluorobenzonitrile] | 13.4 | –
18 | N#Cc1cc(F)cc(Oc2ccc3c(c2Br)[C@@H](O)CS3(=O)=O)c1 [Compound 179, (R)-3-((4-Bromo-3-hydroxy-1,1-dioxido-2,3-dihydrobenzo[b]thiophen-5-yl)oxy)-5-fluorobenzonitrile] | 13.4 | –
19 | CS(=O)(=O)N=S(=O)(CF)c1ccc(Oc2cc(F)cc(C#N)c2)c2c1[C@H](O)C(F)(F)C2 (stereo partly drawn) [Compound 48, N—(((S)-7-(3-cyano-5-fluorophenoxy)-2,2-difluoro-3-hydroxy-2,3-dihydro-1H-inden-4-yl)(fluoromethyl)(oxo)-λ^6-sulfanylidene)methanesulfonamide] | 5.6 | –
20 | O=S(=O)(c1ccc(Oc2ccc3[nH]ncc3c2)c2c1C(O)C(F)(F)C2)C(F)(F)F (stereo not shown) [Compound 19, 4-((1H-Indazol-5-yl)oxy)-2,2-difluoro-7-((trifluoromethyl)sulfonyl)-2,3-dihydro-1H-inden-1-ol] | 4.9 | –
21 | N#Cc1cc(F)cc(Oc2ccc3c(c2C#CCF)C(O)C(F)(F)S3(=O)=O)c1 (stereo not shown) [Compound 174, 3-[[2,2-Difluoro-4-(3-fluoroprop-1-ynyl)-3-hydroxy-1,1-dioxo-3H-benzothiophen-5-yl]oxy]-5-fluoro-benzonitrile] | 10.9 | –
22 | COc1cncc(Oc2ccc3c(c2Br)[C@@H](O)C(F)(F)S3(=O)=O)c1 [Compound 193, (R)-4-bromo-2,2-difluoro-3-hydroxy-5-((5-methoxypyridin-3-yl)oxy)-2,3-dihydrobenzo[b]thiophene 1,1-dioxide] | 14.3 | –
23 | N#CN=S(=O)(CF)c1ccc(Oc2cc(F)cc(C#N)c2)c2c1[C@H](O)CC2 (single isomer, unassigned) [Compound 47] | 1.4 | –
24 | N#Cc1cc(F)cc(Oc2ccc3c(c2C(F)F)C(=N)C(F)S3(=O)=O)c1 (stereo not shown) [Compound 137, 3-((4-(difluoromethyl)-2-fluoro-3-imino-1,1-dioxido-2,3-dihydrobenzo[b]thiophen-5-yl)oxy)-5-fluorobenzonitrile] | 5.8 | –
25 | N#Cc1cncc(Oc2ccc(S(=O)(=O)CF)c3c2[C@H](F)C(F)(F)[C@H]3O)c1 [Compound 109, 5-(((1S,3S)-2,2,3-trifluoro-7-((fluoromethyl)sulfonyl)-1-hydroxy-2,3-dihydro-1H-inden-4-yl)oxy)nicotinonitrile] | 2.2 | –
26 | CS(=O)(=O)c1ccc(Oc2cncc(Br)c2)c2c1C(=O)C(F)(F)C2 [Compound 87, 4-((5-Bromopyridin-3-yl)oxy)-2,2-difluoro-7-(methylsulfonyl)-2,3-dihydro-1H-inden-1-one] | 5.3 | –
27 | O=S1(=O)c2ccc(Oc3cc(F)cc(Cl)c3)cc2C(O)C1(F)F (stereo not shown) [Compound 126, 5-(3-Chloro-5-fluorophenoxy)-2,2-difluoro-3-hydroxy-2,3-dihydrobenzo[b]thiophene 1,1-dioxide] | – | 1.88
28 | O=S1(=O)C[C@H](O)c2c1ccc(Oc1cccc(F)c1)c2Br [Compound 183, (R)-4-bromo-5-(3-fluorophenoxy)-3-hydroxy-2,3-dihydrobenzo[b]thiophene 1,1-dioxide] | 13.7 | –
